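Following 48 hours of exposure in 96-well plates, responses at five concentrations were used to interpolate endpoints linearly. TGI denotes the concentration required for complete inhibition of growth.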
Experiments:
Experiment in all cases: DTP human tumour cell line panel, 48 h
786-0 renal = tested on: 786-0 renal
A498 renal = tested on: A498 renal
A549 NSCLC = tested on: A549 NSCLC
ACHN renal = tested on: ACHN renal
BT-549 breast = tested on: BT-549 breast
CAKI-1 renal = tested on: CAKI-1 renal
CCRF-CEM leukemia = tested on: CCRF-CEM leukemia
COLO 205 colon = tested on: COLO 205 colon
DLD-1 colon = tested on: DLD-1 colon
DMS 114 small cell lung = tested on: DMS 114 small cell lung
DMS 273 small cell lung = tested on: DMS 273 small cell lung
DU-145 prostate = tested on: DU-145 prostate
EKVX NSCLC = tested on: EKVX NSCLC
HCC-2998 colon = tested on: HCC-2998 colon
HCT-116 colon = tested on: HCT-116 colon
HCT-15 colon = tested on: HCT-15 colon
HL-60(TB) leukemia = tested on: HL-60(TB) leukemia
HOP-18 NSCLC = tested on: HOP-18 NSCLC
HOP-62 NSCLC = tested on: HOP-62 NSCLC
HOP-92 NSCLC = tested on: HOP-92 NSCLC
HS 578T breast = tested on: HS 578T breast
HT29 colon = tested on: HT29 colon
IGROV1 ovarian = tested on: IGROV1 ovarian
K-562 leukemia = tested on: K-562 leukemia
KM12 colon = tested on: KM12 colon
KM20L2 colon = tested on: KM20L2 colon
LOX IMVI melanoma = tested on: LOX IMVI melanoma
LXFL 529 NSCLC = tested on: LXFL 529 NSCLC
M14 melanoma = tested on: M14 melanoma
M19-MEL melanoma = tested on: M19-MEL melanoma
MALME-3M melanoma = tested on: MALME-3M melanoma
MCF7 breast = tested on: MCF7 breast
MDA-MB-231 breast = tested on: MDA-MB-231 breast
MDA-MB-435 = tested on: MDA-MB-435
MDA-N = tested on: MDA-N
MOLT-4 leukemia = tested on: MOLT-4 leukemia
NCI-H226 lung = tested on: NCI-H226 lung
NCI-H23 lung = tested on: NCI-H23 lung
NCI-H460 lung = tested on: NCI-H460 lung
NCI-H522 lung = tested on: NCI-H522 lung
NCI/ADR-RES ovarian = tested on: NCI/ADR-RES ovarian
OVCAR-3 ovarian = tested on: OVCAR-3 ovarian
OVCAR-4 ovarian = tested on: OVCAR-4 ovarian
OVCAR-5 ovarian = tested on: OVCAR-5 ovarian
OVCAR-8 ovarian = tested on: OVCAR-8 ovarian
PC-3 prostate = tested on: PC-3 prostate
RPMI-8226 leukemia = tested on: RPMI-8226 leukemia
RXF 393 renal = tested on: RXF 393 renal
SF-268 CNS = tested on: SF-268 CNS
SF-295 CNS = tested on: SF-295 CNS
SF-539 CNS = tested on: SF-539 CNS
SK-MEL-2 melanoma = tested on: SK-MEL-2 melanoma
SK-MEL-28 melanoma = tested on: SK-MEL-28 melanoma
SK-MEL-5 melanoma = tested on: SK-MEL-5 melanoma
SK-OV-3 ovarian = tested on: SK-OV-3 ovarian
SN12C renal = tested on: SN12C renal
SNB-19 CNS = tested on: SNB-19 CNS
SNB-75 CNS = tested on: SNB-75 CNS
SNB-78 CNS = tested on: SNB-78 CNS
SR leukemia = tested on: SR leukemia
SW-620 colon = tested on: SW-620 colon
T-47D breast = tested on: T-47D breast
TK-10 renal = tested on: TK-10 renal
U251 CNS = tested on: U251 CNS
UACC-257 melanoma = tested on: UACC-257 melanoma
UACC-62 melanoma = tested on: UACC-62 melanoma
UO-31 renal = tested on: UO-31 renal
XF 498 CNS = tested on: XF 498 CNS

Question: How did the TGI (786-0 renal) turn out when `COc1cc(NS(C)(=O)=O)ccc1Nc1c2ccccc2nc2c1[nH]c1ccc(NC3OC(CO)C(O)C(O)C3O)cc12` (stereo not drawn) was run?
Answer: 339 nM

Question: And the TGI (A498 renal)?
Answer: 881 nM

Question: And the TGI (A549 NSCLC)?
Answer: 235 nM

Question: And the TGI (ACHN renal)?
Answer: 137 nM

Question: What about the TGI (BT-549 breast) of the same compound?
Answer: 5690 nM

Question: And the TGI (CAKI-1 renal)?
Answer: 91 nM

Question: What about the TGI (CCRF-CEM leukemia) of the same compound?
Answer: 3120 nM

Question: And the TGI (COLO 205 colon)?
Answer: 2760 nM

Question: And the TGI (DLD-1 colon)?
Answer: 1930 nM

Question: And the TGI (DMS 114 small cell lung)?
Answer: 78.4 nM

Question: What about the TGI (DMS 273 small cell lung) of the same compound?
Answer: 261 nM

Question: What about the TGI (DU-145 prostate) of the same compound?
Answer: 245 nM

Question: What about the TGI (EKVX NSCLC) of the same compound?
Answer: 4980 nM

Question: And the TGI (HCC-2998 colon)?
Answer: 809 nM

Question: What about the TGI (HCT-116 colon) of the same compound?
Answer: 1430 nM

Question: And the TGI (HCT-15 colon)?
Answer: 2140 nM

Question: And the TGI (HL-60(TB) leukemia)?
Answer: 282 nM

Question: What about the TGI (HOP-18 NSCLC) of the same compound?
Answer: 1650 nM

Question: And the TGI (HOP-62 NSCLC)?
Answer: 208 nM

Question: What about the TGI (HOP-92 NSCLC) of the same compound?
Answer: 1040 nM

Question: And the TGI (HS 578T breast)?
Answer: 4290 nM

Question: And the TGI (HT29 colon)?
Answer: 938 nM

Question: What about the TGI (IGROV1 ovarian) of the same compound?
Answer: 3470 nM

Question: What about the TGI (K-562 leukemia) of the same compound?
Answer: 20300 nM

Question: And the TGI (KM12 colon)?
Answer: 1210 nM

Question: What about the TGI (KM20L2 colon) of the same compound?
Answer: 1870 nM

Question: And the TGI (LOX IMVI melanoma)?
Answer: 1180 nM

Question: What about the TGI (LXFL 529 NSCLC) of the same compound?
Answer: 2460 nM

Question: What about the TGI (M14 melanoma) of the same compound?
Answer: 971 nM

Question: And the TGI (M19-MEL melanoma)?
Answer: 1750 nM

Question: And the TGI (MALME-3M melanoma)?
Answer: 1430 nM

Question: And the TGI (MCF7 breast)?
Answer: 10100 nM

Question: What about the TGI (MDA-MB-231 breast) of the same compound?
Answer: 8110 nM

Question: And the TGI (MDA-MB-435)?
Answer: 7060 nM

Question: What about the TGI (MDA-N) of the same compound?
Answer: 2710 nM

Question: What about the TGI (MOLT-4 leukemia) of the same compound?
Answer: 3650 nM

Question: What about the TGI (NCI-H226 lung) of the same compound?
Answer: 201 nM

Question: And the TGI (NCI-H23 lung)?
Answer: 270 nM

Question: What about the TGI (NCI-H460 lung) of the same compound?
Answer: 196 nM

Question: What about the TGI (NCI-H522 lung) of the same compound?
Answer: 387 nM

Question: And the TGI (NCI/ADR-RES ovarian)?
Answer: 45800 nM

Question: And the TGI (OVCAR-3 ovarian)?
Answer: 2000 nM

Question: What about the TGI (OVCAR-4 ovarian) of the same compound?
Answer: 4660 nM

Question: And the TGI (OVCAR-5 ovarian)?
Answer: 2090 nM

Question: And the TGI (OVCAR-8 ovarian)?
Answer: 950 nM

Question: And the TGI (PC-3 prostate)?
Answer: 3600 nM

Question: And the TGI (RPMI-8226 leukemia)?
Answer: 3850 nM

Question: And the TGI (RXF 393 renal)?
Answer: 610 nM

Question: And the TGI (SF-268 CNS)?
Answer: 1510 nM

Question: And the TGI (SF-295 CNS)?
Answer: 130 nM

Question: And the TGI (SF-539 CNS)?
Answer: 40.5 nM

Question: And the TGI (SK-MEL-2 melanoma)?
Answer: 1360 nM

Question: And the TGI (SK-MEL-28 melanoma)?
Answer: 1960 nM

Question: What about the TGI (SK-MEL-5 melanoma) of the same compound?
Answer: 1310 nM

Question: What about the TGI (SK-OV-3 ovarian) of the same compound?
Answer: 299 nM

Question: What about the TGI (SN12C renal) of the same compound?
Answer: 387 nM

Question: What about the TGI (SNB-19 CNS) of the same compound?
Answer: 1460 nM

Question: And the TGI (SNB-75 CNS)?
Answer: 388 nM

Question: And the TGI (SNB-78 CNS)?
Answer: 9300 nM

Question: What about the TGI (SR leukemia) of the same compound?
Answer: > 100000 nM

Question: What about the TGI (SW-620 colon) of the same compound?
Answer: 2080 nM

Question: What about the TGI (T-47D breast) of the same compound?
Answer: 15700 nM

Question: What about the TGI (TK-10 renal) of the same compound?
Answer: 700 nM

Question: And the TGI (U251 CNS)?
Answer: 332 nM

Question: What about the TGI (UACC-257 melanoma) of the same compound?
Answer: 11000 nM

Question: What about the TGI (UACC-62 melanoma) of the same compound?
Answer: 1080 nM

Question: And the TGI (UO-31 renal)?
Answer: 1190 nM

Question: And the TGI (XF 498 CNS)?
Answer: 832 nM
